From EPA's ToxRefDB 2

Columns and labels:
[1] = system: rabbit; conditions: Prenatal developmental toxicity study, Oral, Gavage/Intubation, dose end: 19 GD, group: maternal
[2] = system: primate; conditions: Sub-acute repeat dose toxicity, Injection, Intravenous, dose end: 14 day, group: systemic
[3] = system: rat; conditions: Sub-acute repeat dose toxicity, wistar, Oral, Gavage/Intubation, dose end: 14 day, group: systemic
[4] = system: rat; conditions: Sub-acute repeat dose toxicity, wistar, Oral, Feed, dose end: 14 day, group: systemic
[5] = system: rat; conditions: Sub-acute repeat dose toxicity; wistar; Injection; Intravenous; dose end: 14 day; group: systemic; systemic / in life observation / clinical signs / skin discoloration + systemic / pathology microscopic / skin / inflammation + systemic / …
[6] = system: rat; conditions: Fertility (Segment I); Oral; Gavage/Intubation; dose end: 1 generation; group: parental; systemic / in life observation / body weight / body weight gain + systemic / in life observation / food consumption / food consumption
[7] = system: primate; conditions: Chronic toxicity, Oral, Gavage/Intubation, dose end: 182 day, group: systemic
[8] = system: rat; conditions: Subchronic oral toxicity in rodents, fischer, Feed, dose end: 13 week
[9] = system: mouse; conditions: Subchronic oral toxicity in rodents, cd1, Feed, dose end: 4 week, group: systemic
[10] = system: rat; conditions: Prenatal developmental toxicity study, fischer, Oral, Feed, dose end: 15 GD
[11] = system: dog; conditions: Chronic toxicity, beagle, Oral, Feed, dose end: 52 week
[12] = system: rat; conditions: Multigenerational reproductive toxicity study, other, Oral, Feed, dose end: 2 generation
[13] = system: dog; conditions: Subchronic oral toxicity in nonrodent, beagle, Feed, dose end: 13 week, group: systemic, systemic / hematology / erythrocyte (rbc) count differential / erythrocyte (rbc) + systemic / in life observation / body weight / body …
[14] = system: mouse; conditions: Carcinogenicity, cd1, Oral, Feed, dose end: 97 week, group: systemic
[15] = system: rat; conditions: Combined chronic toxicity/carcinogenicity, sprague dawley, Oral, Feed, dose end: 2 year
[16] = system: dog; conditions: Subchronic oral toxicity in nonrodent, beagle, Feed, dose end: 6 month
[17] = reproductive / reproductive performance / aborted / aborted + systemic / in life observation / body weight / body weight + systemic / in …
[18] = systemic / clinical chemistry / albumin / albumin + systemic / clinical chemistry / globulins / globulins + systemic / clinical chemistry / …
[19] = systemic / hematology / hematocrit (hct) / hematocrit (hct) + systemic / in life observation / body weight / body weight + systemic / in …
[20] = systemic / hematology / hematocrit (hct) / hematocrit (hct) + systemic / hematology / hemoglobin (hgb) / hemoglobin (hgb) + systemic / …
[21] = systemic / hematology / [other] / [other] + systemic / hematology / erythrocyte (rbc) count differential / erythrocyte (rbc) + systemic / …
[22] = systemic / hematology / erythrocyte (rbc) count differential / erythrocyte (rbc) + systemic / hematology / hematocrit (hct) / hematocrit (…
[23] = systemic / clinical chemistry / protein / protein + systemic / hematology / red blood cell distribution width (rdw) / red blood cell …
[24] = systemic / pathology gross / lymph node / enlarged + systemic / in life observation / clinical signs / salivation + systemic / in life …
[25] = group: cholinesterase, cholinesterase / cholinesterase / cholinesterase / brain cholinesterase (che)
[26] = group: systemic, systemic / clinical chemistry / calcium / calcium + systemic / hematology / leukocyte (wbc) count differential / leukocyte (wbc) + systemic…
[27] = systemic / organ weight / spleen / absolute
[28] = group: developmental, developmental / developmental malformation / bone / bipartite ossification + developmental / developmental malformation / general / crown-…
[29] = group: maternal, systemic / in life observation / body weight / body weight gain + reproductive / reproductive performance / pregnancy / pregnancy + …
[30] = group: cholinesterase, cholinesterase / cholinesterase / cholinesterase / brain cholinesterase (che) + cholinesterase / cholinesterase / cholinesterase / …
[31] = group: cholinesterase, cholinesterase / cholinesterase / cholinesterase / plasma cholinesterase (che)
[32] = group: systemic, systemic / hematology / erythrocyte (rbc) count differential / erythrocyte (rbc) + systemic / hematology / hematocrit (hct) / hematocrit (…
[33] = group: offspring, developmental / offspring survival late / viability index / viability index
[34] = group: offspring, developmental / offspring survival late / viability index / viability index + systemic / in life observation / body weight / offspring (pup…
[35] = group: parental, systemic / in life observation / body weight / body weight + systemic / in life observation / body weight / body weight gain + systemic / in…
[36] = systemic / clinical chemistry / alanine aminotransferase (alt/sgpt) / alanine aminotransferase (alt/sgpt) + systemic / clinical chemistry / …
[37] = group: cholinesterase, cholinesterase / cholinesterase / cholinesterase / erythrocyte cholinesterase (che)
[38] = group: cholinesterase, cholinesterase / cholinesterase / cholinesterase / erythrocyte cholinesterase (che) + cholinesterase / cholinesterase / cholinesterase / …
[39] = group: systemic, systemic / pathology microscopic / spleen / hematopoietic cell proliferation
[40] = group: systemic, systemic / pathology microscopic / spleen / hematopoietic cell proliferation + systemic / hematology / erythrocyte (rbc) count differential…
[41] = group: systemic, systemic / clinical chemistry / alanine aminotransferase (alt/sgpt) / alanine aminotransferase (alt/sgpt) + systemic / organ weight / liver…

Q: What does the source list for `CCC(C)C(NC(=O)c1ccccc1SSc1ccccc1C(=O)NC(C(=O)O)C(C)CC)C(=O)O` (stereo not drawn) [CI-1012]?
A: LOAEL [1, 17]: > 250 mg/kg/day; NEL [1, 17]: 25 mg/kg/day; NOAEL [1, 17]: ≥ 250 mg/kg/day; LEL ([1]; reproductive / reproductive performance / aborted / aborted + systemic / in life observation / body weight / body weight gain + systemic / …): 100 mg/kg/day; LEL [2, 18]: 75 mg/kg/day; NEL [2, 18]: 25 mg/kg/day; LOAEL [2, 19]: > 125 mg/kg/day; NOAEL [2, 19]: ≥ 125 mg/kg/day; LOAEL [3, 20]: > 1500 mg/kg/day; NEL [3, 20]: 100 mg/kg/day; NOAEL [3, 20]: ≥ 1500 mg/kg/day; LEL ([3]; systemic / organ weight / spleen / absolute + systemic / pathology microscopic / stomach / hyperplasia): 250 mg/kg/day; LOAEL [4, 21]: > 1500 mg/kg/day; NOAEL [4, 21]: ≥ 1500 mg/kg/day; LEL [4, 22]: 250 mg/kg/day; NEL [4, 22]: 100 mg/kg/day; LEL [5]: 25 mg/kg/day; LOAEL [5]: > 100 mg/kg/day; NEL [5]: < 25 mg/kg/day; NOAEL [5]: ≥ 100 mg/kg/day; LEL [6]: 100 mg/kg/day; LOAEL [6]: > 500 mg/kg/day; NEL [6]: 50 mg/kg/day; NOAEL [6]: ≥ 500 mg/kg/day; LOAEL [7, 23]: > 250 mg/kg/day; NOAEL [7, 23]: ≥ 250 mg/kg/day; LEL [7, 24]: 50 mg/kg/day; NEL [7, 24]: < 50 mg/kg/day

Q: Which LEL [8, 25] does the source give for `CSC(C)=NOC(=O)N(C)SN(C)C(=O)ON=C(C)SC` [Thiodicarb] here?
A: The LEL was 30 mg/kg/day.

Q: What about the LOAEL [8, 25] of the same molecule?
A: Its LOAEL is greater than 30 mg/kg/day.

Q: What about the NEL [8, 25] of the same molecule?
A: Its NEL is 10 mg/kg/day.

Q: What about the NOAEL [8, 25] of the same molecule?
A: Its NOAEL is no less than 30 mg/kg/day.

Q: And the LOAEL [8, 26]?
A: Its LOAEL is greater than 30 mg/kg/day.

Q: And the NEL [8, 26]?
A: The NEL was 3 mg/kg/day.

Q: What about the NOAEL [8, 26] of the same molecule?
A: Its NOAEL is no less than 30 mg/kg/day.

Q: What about the LEL ([8]; group: systemic, systemic / hematology / leukocyte (wbc) count differential / leukocyte (wbc) + systemic / in life observation / body weight / body weight) of the same molecule?
A: The LEL was 10 mg/kg/day.

Q: And the LOAEL ([9]; systemic / in life observation / body weight / body weight gain)?
A: The LOAEL was 734 mg/kg/day.

Q: And the LEL [9, 27]?
A: Its LEL is 6.2 mg/kg/day.

Q: What about the NEL [9, 27] of the same molecule?
A: Its NEL is less than 6.2 mg/kg/day.

Q: And the NOAEL ([9]; systemic / organ weight / spleen / absolute + systemic / in life observation / body weight / body weight gain + systemic / in life …)?
A: Its NOAEL is 346 mg/kg/day.

Q: What about the LEL [10, 28] of the same molecule?
A: Its LEL is 100 mg/kg/day.

Q: And the LOAEL [10, 28]?
A: Its LOAEL is 100 mg/kg/day.

Q: And the NEL [10, 28]?
A: The NEL was 3 mg/kg/day.

Q: And the NOAEL [10, 28]?
A: Its NOAEL is 3 mg/kg/day.

Q: And the LEL ([10]; group: maternal, reproductive / reproductive performance / pregnancy / pregnancy)?
A: The LEL was 3 mg/kg/day.

Q: What about the LOAEL ([10]; group: maternal, systemic / in life observation / body weight / body weight gain) of the same molecule?
A: The LOAEL was 1 mg/kg/day.

Q: And the NEL [10, 29]?
A: Its NEL is 1 mg/kg/day.

Q: What about the NOAEL [10, 29] of the same molecule?
A: Its NOAEL is 0.5 mg/kg/day.

Q: What about the LOAEL [11, 30] of the same molecule?
A: The LOAEL was 12.8 mg/kg/day.

Q: What about the NOAEL [11, 30] of the same molecule?
A: The NOAEL was 4.4 mg/kg/day.

Q: What about the LEL [11, 31] of the same molecule?
A: The LEL was 4.5 mg/kg/day.

Q: And the NEL [11, 31]?
A: Its NEL is less than 4.5 mg/kg/day.

Q: And the LEL [11, 32]?
A: Its LEL is 38.3 mg/kg/day.

Q: And the LOAEL [11, 32]?
A: The LOAEL was 38.3 mg/kg/day.

Q: What about the NEL [11, 32] of the same molecule?
A: Its NEL is 12.8 mg/kg/day.

Q: What about the NOAEL [11, 32] of the same molecule?
A: The NOAEL was 12.8 mg/kg/day.

Q: What about the LOAEL [12, 33] of the same molecule?
A: Its LOAEL is 5 mg/kg/day.

Q: And the NOAEL [12, 33]?
A: The NOAEL was less than 5 mg/kg/day.

Q: And the LEL [12, 34]?
A: Its LEL is 5 mg/kg/day.

Q: What about the NEL [12, 34] of the same molecule?
A: The NEL was less than 5 mg/kg/day.

Q: What about the LEL [12, 35] of the same molecule?
A: Its LEL is 15 mg/kg/day.

Q: And the LOAEL [12, 35]?
A: Its LOAEL is 15 mg/kg/day.

Q: And the NEL [12, 35]?
A: Its NEL is 5 mg/kg/day.

Q: What about the NOAEL [12, 35] of the same molecule?
A: The NOAEL was 5 mg/kg/day.

Q: What about the LEL [13] of the same molecule?
A: The LEL was 40 mg/kg/day.

Q: What about the LOAEL [13] of the same molecule?
A: The LOAEL was 40 mg/kg/day.

Q: What about the NEL [13] of the same molecule?
A: The NEL was 15 mg/kg/day.

Q: And the NOAEL [13]?
A: Its NOAEL is 15 mg/kg/day.

Q: And the LOAEL [14, 36]?
A: The LOAEL was 1000 mg/kg/day.

Q: And the NOAEL [14, 36]?
A: Its NOAEL is 70 mg/kg/day.

Q: And the NEL ([14]; systemic / in life observation / body weight / body weight + systemic / organ weight / kidney / absolute + systemic / organ weight / kidney…)?
A: The NEL was 5 mg/kg/day.

Q: What about the LEL ([14]; systemic / pathology gross / spleen / enlarged + systemic / organ weight / liver / absolute + systemic / organ weight / spleen / absolute + …) of the same molecule?
A: The LEL was 70 mg/kg/day.

Q: And the LEL [15, 37]?
A: Its LEL is 15 mg/kg/day.

Q: What about the LOAEL [15, 37] of the same molecule?
A: The LOAEL was 15 mg/kg/day.

Q: And the NEL [15, 38]?
A: The NEL was 4.5 mg/kg/day.

Q: What about the NOAEL [15, 38] of the same molecule?
A: Its NOAEL is 4.5 mg/kg/day.

Q: What about the LEL [15, 39] of the same molecule?
A: Its LEL is 12 mg/kg/day.

Q: What about the LOAEL [15, 39] of the same molecule?
A: The LOAEL was 12 mg/kg/day.

Q: What about the NEL [15, 40] of the same molecule?
A: The NEL was 3.3 mg/kg/day.

Q: What about the NOAEL [15, 40] of the same molecule?
A: The NOAEL was 3.3 mg/kg/day.

Q: What about the LEL [16, 38] of the same molecule?
A: The LEL was 45 mg/kg/day.

Q: And the LOAEL [16, 38]?
A: The LOAEL was 45 mg/kg/day.

Q: And the NEL [16, 38]?
A: The NEL was 15 mg/kg/day.

Q: What about the NOAEL [16, 38] of the same molecule?
A: The NOAEL was 15 mg/kg/day.

Q: And the LEL [16, 41]?
A: Its LEL is 45 mg/kg/day.

Q: What about the LOAEL [16, 41] of the same molecule?
A: Its LOAEL is 45 mg/kg/day.

Q: And the NEL [16, 41]?
A: Its NEL is 15 mg/kg/day.

Q: And the NOAEL [16, 41]?
A: Its NOAEL is 15 mg/kg/day.
